Legend:
[1] = biological target: T1, Aat (recombinant His-tagged aminotransferase) (Pediococcus acidilactici, UniProt E0NE36); assay: HPLC of amino acids formed; format: biochemical; details: amino acceptor; leucine, AABA or alanine as amino donor, 50 uM pyridoxal 5-phosphate, pH 5.5, 37 °C, 1 h
T1 construct: gene aspC; full length, C-terminal His tag (pEXP5-CT/TOPO), E. coli BL21(DE3), Ni-TED purified; gene about 1200 bp; cloning primers translate to N-terminus MSDKVNA and native C-terminus LKAKRA; locus tag contradictory: primers designed for GBO44_RS03485 in Methods, GBO44_RS04865 in Results
T1 sequence (E0NE36 1-394): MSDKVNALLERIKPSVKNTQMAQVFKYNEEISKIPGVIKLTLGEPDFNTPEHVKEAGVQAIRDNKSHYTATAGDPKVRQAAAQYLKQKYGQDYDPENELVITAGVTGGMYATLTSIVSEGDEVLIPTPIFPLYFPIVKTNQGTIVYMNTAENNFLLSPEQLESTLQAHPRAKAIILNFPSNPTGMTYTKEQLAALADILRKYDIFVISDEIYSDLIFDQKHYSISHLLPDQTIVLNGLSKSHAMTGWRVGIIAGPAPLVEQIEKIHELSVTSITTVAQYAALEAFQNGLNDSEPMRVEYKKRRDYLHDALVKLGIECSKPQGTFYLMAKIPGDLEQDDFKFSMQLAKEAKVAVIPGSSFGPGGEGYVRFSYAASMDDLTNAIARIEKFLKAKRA

[2] = biological target: T1, Aat (recombinant His-tagged aminotransferase); assay: coupled assay, glutamate formed measured with glutamate dehydrogenase/diaphorase; format: biochemical; details: amino donor; 5 mM amino acid, 10 mM alpha-ketoglutarate, 50 uM pyridoxal 5-phosphate, pH 5.5, 37 °C

SMILES	HPLC of amino acids formed [1]	coupled assay, glutamate formed measured with glutamate dehydrogenase/diaphorase [2]
CCC(=O)C(=O)O [AKB, α-ketobutyrate]	AKB, pyruvate, KMTB, KIC, and PPA significantly preferred amino group acceptors to AKG	
CC(C)C[C@H](N)C(=O)O [Leu, L-leucine]		the enzyme transferred the amino group from leucine, methionine, AABA, alanine, cysteine, and phenylalanine

From PMC7260336, “Identification of a species-specific aminotransferase in Pediococcus acidilactici capable of forming α-aminobutyrate” (AMB Express, 2020)
